Data on 2 compounds can be found in paper PMC3171627 (Bioorganic & medicinal chemistry letters, 2011).

The test system of one experiment is CB2. The note with it: read-out: CB2 functional activity EC50; GTPγ[35S] assay; antagonist series; cited from earlier work.
The target of another experiment is CB1 (Homo sapiens, UniProt P21554). As to conditions: GTPγ[35S] assay; antagonist series; cited from earlier work.
Another experiment addresses CB2 receptor (Mus musculus, UniProt P47936). The experiment in a line: visualization of CB2 receptor binding by CD4+ T cells, confocal microscopy. Type of experiment: cell-based. The note with it: 5 µM, on ice for 30 minutes, T cells from peripheral lymph nodes of BALB/C mice.

CB1, sequence (P21554 whole entry, species assumed): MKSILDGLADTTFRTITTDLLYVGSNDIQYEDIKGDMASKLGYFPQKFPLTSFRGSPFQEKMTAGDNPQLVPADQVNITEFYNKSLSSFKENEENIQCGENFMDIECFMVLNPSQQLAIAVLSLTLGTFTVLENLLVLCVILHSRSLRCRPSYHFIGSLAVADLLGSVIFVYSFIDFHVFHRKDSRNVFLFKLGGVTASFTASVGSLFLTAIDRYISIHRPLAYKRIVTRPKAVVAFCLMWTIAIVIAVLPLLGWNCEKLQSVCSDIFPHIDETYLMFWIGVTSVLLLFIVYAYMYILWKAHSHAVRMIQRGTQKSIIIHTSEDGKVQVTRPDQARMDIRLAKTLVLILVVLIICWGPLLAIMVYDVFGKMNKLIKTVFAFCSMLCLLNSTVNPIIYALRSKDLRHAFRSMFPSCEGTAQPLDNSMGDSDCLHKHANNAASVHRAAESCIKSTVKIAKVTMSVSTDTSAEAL
CB2 receptor, sequence (P47936 whole entry): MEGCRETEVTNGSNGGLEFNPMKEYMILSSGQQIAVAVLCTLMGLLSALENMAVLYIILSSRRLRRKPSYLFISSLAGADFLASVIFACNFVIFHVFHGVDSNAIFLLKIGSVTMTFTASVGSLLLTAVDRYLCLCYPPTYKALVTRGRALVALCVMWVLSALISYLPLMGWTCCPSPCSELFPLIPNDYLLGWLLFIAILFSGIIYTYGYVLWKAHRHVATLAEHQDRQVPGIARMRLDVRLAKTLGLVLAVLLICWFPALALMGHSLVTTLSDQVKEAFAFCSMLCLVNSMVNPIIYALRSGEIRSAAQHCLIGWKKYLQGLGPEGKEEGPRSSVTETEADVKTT

Consider `CCCCCN1C(=O)/C(=N\NC(=O)CN2CCOCC2)c2ccc(OC)cc21` [Compound 5], for which, in the experiment with CB2, the EC50 is 13.3 nM. Further, at CB1, the CB1 activity entry is listed as “did not show any CB1 functional activity”.
In the case of `CCCCCN1C(=O)/C(=N\NC(=O)CN(C)c2ccc([N+](=O)[O-])c3nonc23)c2ccc(OC)cc21` [Compound 6], on CB2 receptor, the “staining of CD4+ T cells” value is listed as “stained the CD4^+ T cells”.
